# Results published in article PMC6332255, “Evaluation of the Cytotoxicity of α-Cyclodextrin Derivatives on the Caco-2 Cell Line and Human Erythrocytes” (Molecules, 2015).
# Legend:
# [1] = tested on: Caco-2 cells; assay: Real-time cell electronic sensing (RT-CES) on Caco-2 cells; assay type: cell-based, human; conditions: for IC50: up to 8 h treatment, impedance cell index; for concentration up to which non-toxic (RT-CES): up to 8 h; for toxicity by RT-CES, result in words: prolonged exposition time (up to 8 h) versus 30 min MTT
# Description: (§1) Caco-2 cell line was obtained from the European Collection of Cell Cultures (ECACC). Cells were grown in plastic cell culture flasks in Dulbecco’s Modified Eagle’s Medium supplemented with 3.7 g/L NaHCO3, 10% (v/v) heat-inactivated fetal bovine serum (FBS), 1% (v/v) non-essential amino acids solution, 1% (v/v) L-glutamine, 100 IU/mL penicillin, and 100 µg/mL streptomycin at 37 °C in an atmosphere of 5% CO2. The cells were routinely maintained by regular passaging. For cytotoxic and transport experiments, cells were used between passage numbers 20 and 40. The culture media were replaced with fresh media in every 72 h.
# Real-time cell electronic sensing (RT-CES) is a label-free technique for dynamic monitoring of living cells. The xCELLigence system (Roche, Basel, Switzerland) utilizes an electronic readout called impedance to non-invasively quantify adherence cell proliferation and viability. E-plates (Roche) contain gold microelectronic sensor arrays. The interaction between cells and the electrode generates impedance response that correlates linearly with cell index reflecting cell number, adherence and cell growth. This method is more sensitive and informative than colorimetric end-point assays to test pharmaceutical excipients.
# The E-plate was coated with 0.2% rat tail collagen–DW solution for 20 min at 37 °C. Culture media (60 μL) was added to each well for background readings than 100 µL Caco-2 cell suspension was dispensed at the density of 1.5 × 10^4 cells/well. The cells were grown for 2 days. The medium was changed to excipients solutions and the cells in the E-plate were kept in an incubator at 37 °C for 8 h and monitored every 5 min.
# The cell index at each time point was defined as (Rn − Rb)/15, where Rn is the cell-electrode impedance of the well when it contains cells and Rb is the background impedance of the well with the media alone.
# [2] = Solubility of the samples in isotonic PBS; assay type: physicochemical; conditions: isotonic phosphate buffered saline (PBS)
# Description: α-Cyclodextrin derivatives were generously offered by Cyclolab Ltd. (Cyclodextrin Research & Development Laboratory, Budapest, Hungary). […] We investigated each α-CD in 7 different concentrations: 0.01; 0.1; 1; 10; 25; 50 and 100 mM, with the exception of TRIMEA, which was not soluble above 30 mM. The solid samples were dissolved in isotonic phosphate buffered saline (PBS), purchased from Sigma–Aldrich (Budapest, Hungary) (Table 2.)
# [3] = tested on: human erythrocytes; assay: Hemolysis test on human red blood cells; assay type: cell-based; conditions: for HC50: PBS pH 7.2, 37 °C, mean ± SD; for HC50 / concentration up to which not hemolytic: 10 min
# Description: Hemolysis test was performed on fresh human blood. Erythrocytes were separated from citrated blood by centrifugation at 2500× g for 10 min.; washed three times with PBS and resuspended in the same solution. Aliquots of the cell suspension with the respective red blood cell number of 5 × 10^7 were added to the buffer solution (PBS pH 7.2) containing increasing concentrations of the samples investigated in the study. After mixing them gently, each solution was incubated at 37 °C for 10 min and then centrifuged at 5000× g. Finally, the absorbance of the hemoglobin released into the supernatant was measured at 540 nm with a FLUOstar OPTIMA Microplate Reader. The percentage of hemolysis was expressed as the ratio of hemoglobin in the supernatant of the sample solutions related to the hemoglobin concentration after the complete hemolysis of erythrocytes in water. The dose-response curve was determined, and the concentration inducing hemolysis in 50% of the erythrocyte population (HC50) was subsequently calculated.
# [4] = tested on: Caco-2 cells; assay: MTT cell viability assay on Caco-2 cells; assay type: cell-based, human; conditions: for IC50: 30 min incubation at 37 °C in PBS, mean ± SD; for concentration up to which no toxic effect (MTT): 30 min
# Description: as §1
# The MTT assay was performed on Caco-2 cells. The cells were seeded in 96 well plates until the cell monolayer become confluent. The medium was changed once. After one week the medium was removed, the cells were washed with PBS and exposed to increasing concentrations of α-CDs dissolved in phosphate buffer saline (PBS). Cells were incubated for 30 min on 37 °C. Control groups were processed equally and incubated without CD simultaneously. After treatment MTT dye (3-(4,5-dimethylthiazol-2-yl))-2,5-diphenyltetrazolium bromide, 5 mg/mL) was applied to each well for 3 h. MTT solution was removed and isopropanol-hydrochloric acid (25:1) was added to dissolve the formed formazan crystals. The absorbance was measured at 570 nm against a 690 nm reference with a FLUOstar OPTIMA Microplate Reader. Cell viability was expressed as the percentage of untreated control.
IC50 [1],IC50 [4],Compound,HC50 [3],concentration up to which no toxic effect (MTT) [4],other results
,> 100 mM,carboxymethylated α-CD sodium salt [CMACD],>100 mM,> 100000 µM,"toxicity by RT-CES, result in words [1]: toxic when the exposition time was prolonged; HC50 ([3]; listed as carboxymethylated): > 100 mM"
,7.8 ± 8.6 mM,phosphated α-CD sodium salt,>100 mM,,"hemolysis, result in words [3]: did not result in hemolysis"
,78.6 ± 15.8 mM,randomly methylated α-CD [RAMEA],15.5 ± 0.01 mM,,

# The remaining lines, values behind:
Compound,IC50 [1],IC50 [4],HC50 [3],concentration up to which no toxic effect (MTT) [4],other results
"COC[C@H]1O[C@@H]2O[C@@H]3[C@@H](OC)[C@@H](OC)[C@@H](O[C@@H]4[C@@H](OC)[C@@H](OC)[C@@H](O[C@@H]5[C@@H](OC)[C@@H](OC)[C@@H](O[C@@H]6[C@@H](OC)[C@@H](OC)[C@@H](O[C@@H]7[C@@H](OC)[C@@H](OC)[C@@H](O[C@@H]1[C@@H](OC)[C@H]2OC)O[C@@H]7COC)O[C@@H]6COC)O[C@@H]5COC)O[C@@H]4COC)O[C@@H]3COC [TRIMEA, hexakis-(2,3,6-tri-O-methyl)-α-CD]",> 1 mM,1.8 ± 0.8 mM,1.9 ± 0.01 mM,,solubility limit [2]: ≤ 30 mM
"OC[C@H]1O[C@@H]2O[C@H]3[C@H](O)[C@@H](O)[C@@H](O[C@H]4[C@H](O)[C@@H](O)[C@@H](O[C@H]5[C@H](O)[C@@H](O)[C@@H](O[C@H]6[C@H](O)[C@@H](O)[C@@H](O[C@H]7[C@H](O)[C@@H](O)[C@@H](O[C@H]1[C@H](O)[C@H]2O)O[C@@H]7CO)O[C@@H]6CO)O[C@@H]5CO)O[C@@H]4CO)O[C@@H]3CO [native, α-cyclodextrin]",,,16.0 ± 0.02 mM,,"IC50 ([1]; Homo sapiens): > 25 mM; HC50 ([3]; listed as Native α-CD): 16 mM; IC50 ([4]; Homo sapiens, 0.5 h): 46.1 ± 9.2 mM"
(2-hydroxy) propyl α-CD [HPACD],> 100 mM,> 100 mM,>100 mM,> 100000 µM,concentration up to which non-toxic (RT-CES) [1]: > 100000 µM; concentration up to which not hemolytic [3]: > 100000 µM; HC50 ([3]; listed as Hydroxypropyl): > 100 mM
acetylated α-CD [AcACD],> 100 mM,> 100 mM,>100 mM,> 100000 µM,concentration up to which non-toxic (RT-CES) [1]: > 100000 µM; concentration up to which not hemolytic [3]: > 100000 µM; HC50 ([3]; listed as acetyl): > 100 mM
succinylated α-CD [SuACD],> 1 mM,19 ± 8.8 mM,9.6 ± 0.03 mM,,
sulfated α-CD,,> 100 mM,>100 mM,> 100000 µM,"toxicity by RT-CES, result in words [1]: toxic when the exposition time was prolonged"
